According to paper PMC5362750, “Discovery of Potent, Selective, and Orally Bioavailable Small-Molecule Modulators of the Mediator Complex-Associated Kinases CDK8 and CDK19” (Journal of Medicinal Chemistry, 2016):

Key:
TIE2(Y897S) = TIE2(Y897S) (Homo sapiens, UniProt Q02763, Y897S); settings: 1 µM, ATP at Km
AR (h) = settings: 10 µM, agonist radioligand
AMPA = settings: 10 µM, agonist radioligand
CCK2 (CCKB) (h) = CCK2 (CCKB) (h) (Homo sapiens, UniProt P32239); assay: CEREP binding assay; settings: agonist radioligand, read-out: % Inhibition of Control Specific Binding
cMET (D1246H) = cMET (D1246H) (Homo sapiens, UniProt P08581, D1228H); settings: 1 µM, ATP at Km
CKIT(D816H) = CKIT(D816H) (Homo sapiens, UniProt P10721, D816H); settings: 1 µM, ATP at Km
EGFR(T790M) = EGFR(T790M) (Homo sapiens, UniProt P00533, T790M); settings: 1 µM, ATP at Km
CDK7/CYCLINH/MAT1 = CDK7/CYCLINH/MAT1 (Homo sapiens, UniProt P50613); settings: 1 µM, ATP at Km
PRKX = target: T1, PRKX (Homo sapiens, UniProt P51817); assay: Kinase panel (Millipore); type: biochemical; settings: 1 µM, ATP at Km
T1 construct: purchased Millipore (KinaseProfiler) kinase panel

CDK9/CYCLINT1 = CDK9/CYCLINT1 (Homo sapiens, UniProt P50750); settings: 1 µM, ATP at Km
SAPK3 = SAPK3 (Homo sapiens, UniProt P53778); assay: Kinase panel (Millipore); type: biochemical; settings: 1 µM, ATP at Km
in vivo = settings: NCr athymic, mouse, po, 30 mg/kg
SAPK2A = SAPK2A (Homo sapiens, UniProt Q16539); assay: Kinase panel (Millipore); type: biochemical; settings: 1 µM, ATP at Km
5-HT2C (h) = 5-HT2C (h) (Homo sapiens, UniProt P28335); assay: biochemical; settings: read-out: % Inhibition of Control Specific Binding
JNK3 = JNK3 (Homo sapiens, UniProt P53779); assay: Kinase panel (Millipore); type: biochemical; settings: 1 µM, ATP at Km
BTK(R28H) = BTK(R28H) (Homo sapiens, UniProt Q06187, R28H); settings: 1 µM, ATP at Km
PKCIOTA = target: T2, PKCIOTA (Homo sapiens, UniProt P41743); assay: Kinase panel (Millipore); type: biochemical; settings: 1 µM, ATP at Km
T2 construct: purchased Millipore (KinaseProfiler) kinase panel

ERBB4 = target: T3, ERBB4 (Homo sapiens, UniProt Q15303); assay: Kinase panel (Millipore); type: biochemical; settings: 1 µM, ATP at Km
T3 construct: purchased Millipore (KinaseProfiler) kinase panel

PKCBII = PKCBII (Homo sapiens, UniProt P05771); assay: Kinase panel (Millipore); type: biochemical; settings: 1 µM, ATP at Km
PKCBETAI = PKCBETAI (Homo sapiens, UniProt P05771); assay: Kinase panel (Millipore); type: biochemical; settings: 1 µM, ATP at Km
PASK = target: T4, PASK (Homo sapiens, UniProt Q96RG2); assay: Kinase panel (Millipore); type: biochemical; settings: 1 µM, ATP at Km
T4 construct: purchased Millipore (KinaseProfiler) kinase panel

NEK7 = NEK7 (Homo sapiens, UniProt Q8TDX7); assay: Kinase panel (Millipore); type: biochemical; settings: 1 µM, ATP at Km
PKCETA = target: T5, PKCETA (Homo sapiens, UniProt P24723); assay: Kinase panel (Millipore); type: biochemical; settings: 1 µM, ATP at Km
T5 construct: purchased Millipore (KinaseProfiler) kinase panel

D2S (h) = D2S (h) (Homo sapiens, UniProt P14416); assay: biochemical; settings: read-out: % Inhibition of Control Specific Binding
FMS = target: T6, FMS (Homo sapiens, UniProt P07333); assay: Kinase panel (Millipore); type: biochemical; settings: 1 µM, ATP at Km
T6 construct: purchased Millipore (KinaseProfiler) kinase panel

ABL (Q252H) = ABL (Q252H) (Homo sapiens, UniProt P00519, Q252H); settings: 1 µM, ATP at Km
CAMKIIGAMMA = CAMKIIGAMMA (Homo sapiens, UniProt Q13555); assay: Kinase panel (Millipore); type: biochemical; settings: 1 µM, ATP at Km
IKKALPHA = target: T7, IKKALPHA (Homo sapiens, UniProt O15111); assay: Kinase panel (Millipore); type: biochemical; settings: 1 µM, ATP at Km
T7 construct: purchased Millipore (KinaseProfiler) kinase panel

HASPIN = target: T8, HASPIN (Homo sapiens, UniProt Q8TF76); assay: Kinase panel (Millipore); type: biochemical; settings: 1 µM, ATP at Km
T8 construct: purchased Millipore (KinaseProfiler) kinase panel

BLT1 (LTB4) (h) = target: T9, BLT1 (LTB4) (h) (Homo sapiens, UniProt Q15722); assay: CEREP binding assay; settings: agonist radioligand, read-out: % Inhibition of Control Specific Binding
T9 construct: purchased Millipore (KinaseProfiler) kinase panel

MST1 = MST1 (Homo sapiens, UniProt Q13043); assay: Kinase panel (Millipore); type: biochemical; settings: 1 µM, ATP at Km
PKD2 = target: T10, PKD2 (Homo sapiens, UniProt Q9BZL6); assay: Kinase panel (Millipore); type: biochemical; settings: 1 µM, ATP at Km
T10 construct: purchased Millipore (KinaseProfiler) kinase panel

ZIPK = ZIPK (Homo sapiens, UniProt O43293); assay: Kinase panel (Millipore); type: biochemical; settings: 1 µM, ATP at Km
NEK2 = NEK2 (Homo sapiens, UniProt P51955); assay: Kinase panel (Millipore); type: biochemical; settings: 1 µM, ATP at Km
JNK2ALPHA2 = JNK2ALPHA2 (Homo sapiens, UniProt P45984); assay: Kinase panel (Millipore); type: biochemical; settings: 1 µM, ATP at Km
CHK2(R145W) = CHK2(R145W) (Homo sapiens, UniProt O96017, R145W); settings: 1 µM, ATP at Km
PLK1 = PLK1 (Homo sapiens, UniProt P53350); assay: Kinase panel (Millipore); type: biochemical; settings: 1 µM, ATP at Km
SRC(T341M) = SRC(T341M) (Homo sapiens, UniProt P12931, T341M); settings: 1 µM, ATP at Km
PIM-2 = PIM-2 (Homo sapiens, UniProt Q9P1W9); assay: Kinase panel (Millipore); type: biochemical; settings: 1 µM, ATP at Km

Sequence of CKIT(D816H) (P10721 544-976 D816H limits assumed): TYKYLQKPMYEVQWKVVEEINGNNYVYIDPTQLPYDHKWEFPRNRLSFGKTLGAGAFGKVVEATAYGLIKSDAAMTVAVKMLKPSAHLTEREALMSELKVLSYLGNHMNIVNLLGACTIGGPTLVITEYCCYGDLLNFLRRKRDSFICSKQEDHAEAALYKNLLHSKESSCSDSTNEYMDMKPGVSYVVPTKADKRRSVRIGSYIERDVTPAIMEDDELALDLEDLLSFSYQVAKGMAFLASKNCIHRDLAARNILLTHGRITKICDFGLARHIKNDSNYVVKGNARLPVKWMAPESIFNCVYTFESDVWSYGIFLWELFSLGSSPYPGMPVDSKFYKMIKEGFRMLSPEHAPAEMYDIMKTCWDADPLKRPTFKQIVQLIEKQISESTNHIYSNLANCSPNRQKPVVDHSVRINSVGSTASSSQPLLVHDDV
Sequence of CDK9/CYCLINT1 (P50750 whole entry): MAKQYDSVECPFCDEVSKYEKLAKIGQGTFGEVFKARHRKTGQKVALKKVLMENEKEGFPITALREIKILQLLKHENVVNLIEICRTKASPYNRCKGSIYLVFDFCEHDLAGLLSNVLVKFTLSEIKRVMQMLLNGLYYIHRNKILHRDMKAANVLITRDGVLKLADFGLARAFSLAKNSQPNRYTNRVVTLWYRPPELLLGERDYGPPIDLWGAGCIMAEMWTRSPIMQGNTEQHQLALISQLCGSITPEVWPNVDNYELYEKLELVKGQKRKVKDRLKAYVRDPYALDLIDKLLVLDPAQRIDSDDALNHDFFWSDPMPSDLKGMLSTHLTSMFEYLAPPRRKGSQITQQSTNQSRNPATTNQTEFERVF
Sequence of CDK9/CYCLINT1 (O60563 whole entry partner): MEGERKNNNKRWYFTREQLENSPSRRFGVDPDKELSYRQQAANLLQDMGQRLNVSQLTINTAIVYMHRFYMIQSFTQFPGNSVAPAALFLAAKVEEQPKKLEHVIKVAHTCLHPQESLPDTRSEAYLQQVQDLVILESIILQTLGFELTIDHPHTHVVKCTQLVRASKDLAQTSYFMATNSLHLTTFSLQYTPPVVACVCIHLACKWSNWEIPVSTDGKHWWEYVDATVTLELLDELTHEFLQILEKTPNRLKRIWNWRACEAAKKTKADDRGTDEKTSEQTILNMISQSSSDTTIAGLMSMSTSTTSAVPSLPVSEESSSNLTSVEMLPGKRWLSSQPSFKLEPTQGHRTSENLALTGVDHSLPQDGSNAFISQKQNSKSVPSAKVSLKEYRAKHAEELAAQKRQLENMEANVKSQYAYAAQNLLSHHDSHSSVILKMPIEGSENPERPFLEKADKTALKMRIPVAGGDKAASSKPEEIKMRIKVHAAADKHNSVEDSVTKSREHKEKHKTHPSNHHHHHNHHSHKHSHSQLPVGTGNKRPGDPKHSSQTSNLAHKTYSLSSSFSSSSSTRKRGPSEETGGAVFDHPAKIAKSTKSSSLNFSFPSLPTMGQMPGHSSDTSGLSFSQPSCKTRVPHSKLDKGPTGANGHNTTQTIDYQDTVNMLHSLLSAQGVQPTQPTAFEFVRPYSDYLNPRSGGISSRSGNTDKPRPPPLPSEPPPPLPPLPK
T5 sequence (P24723 whole entry): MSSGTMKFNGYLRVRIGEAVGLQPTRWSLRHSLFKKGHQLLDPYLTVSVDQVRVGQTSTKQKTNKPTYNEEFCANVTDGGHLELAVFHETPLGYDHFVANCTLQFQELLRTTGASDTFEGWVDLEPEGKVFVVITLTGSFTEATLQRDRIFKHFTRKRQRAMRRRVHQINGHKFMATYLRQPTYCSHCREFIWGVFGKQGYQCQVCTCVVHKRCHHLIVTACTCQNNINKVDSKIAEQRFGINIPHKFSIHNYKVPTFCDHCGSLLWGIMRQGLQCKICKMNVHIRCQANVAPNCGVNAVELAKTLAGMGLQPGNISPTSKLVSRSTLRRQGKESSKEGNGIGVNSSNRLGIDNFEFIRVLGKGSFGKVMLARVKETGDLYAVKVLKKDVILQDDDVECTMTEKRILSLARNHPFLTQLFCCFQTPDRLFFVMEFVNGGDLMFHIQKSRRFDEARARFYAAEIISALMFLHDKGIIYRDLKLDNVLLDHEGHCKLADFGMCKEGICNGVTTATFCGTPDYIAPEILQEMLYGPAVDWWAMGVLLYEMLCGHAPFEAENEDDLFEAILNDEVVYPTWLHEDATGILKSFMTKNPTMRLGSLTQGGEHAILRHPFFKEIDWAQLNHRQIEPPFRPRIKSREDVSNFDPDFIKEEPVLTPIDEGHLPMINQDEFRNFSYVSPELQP
T2 sequence (P41743 whole entry): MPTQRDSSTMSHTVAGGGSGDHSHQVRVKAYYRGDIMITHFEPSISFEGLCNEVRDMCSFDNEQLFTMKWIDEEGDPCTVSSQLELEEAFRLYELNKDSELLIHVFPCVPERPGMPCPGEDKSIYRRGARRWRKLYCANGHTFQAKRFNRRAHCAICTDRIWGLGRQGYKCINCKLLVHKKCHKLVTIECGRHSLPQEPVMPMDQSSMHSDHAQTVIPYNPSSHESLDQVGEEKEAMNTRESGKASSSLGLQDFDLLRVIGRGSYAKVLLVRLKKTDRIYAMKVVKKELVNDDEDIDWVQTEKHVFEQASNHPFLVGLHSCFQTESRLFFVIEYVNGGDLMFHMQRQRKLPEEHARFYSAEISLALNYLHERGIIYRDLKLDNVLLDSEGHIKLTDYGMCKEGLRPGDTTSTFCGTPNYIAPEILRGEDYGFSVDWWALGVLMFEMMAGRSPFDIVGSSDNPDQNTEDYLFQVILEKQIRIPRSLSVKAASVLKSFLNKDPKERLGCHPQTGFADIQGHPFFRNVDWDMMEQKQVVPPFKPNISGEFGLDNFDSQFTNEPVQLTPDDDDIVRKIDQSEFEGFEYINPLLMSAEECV
Sequence of MST1 (Q13043 whole entry): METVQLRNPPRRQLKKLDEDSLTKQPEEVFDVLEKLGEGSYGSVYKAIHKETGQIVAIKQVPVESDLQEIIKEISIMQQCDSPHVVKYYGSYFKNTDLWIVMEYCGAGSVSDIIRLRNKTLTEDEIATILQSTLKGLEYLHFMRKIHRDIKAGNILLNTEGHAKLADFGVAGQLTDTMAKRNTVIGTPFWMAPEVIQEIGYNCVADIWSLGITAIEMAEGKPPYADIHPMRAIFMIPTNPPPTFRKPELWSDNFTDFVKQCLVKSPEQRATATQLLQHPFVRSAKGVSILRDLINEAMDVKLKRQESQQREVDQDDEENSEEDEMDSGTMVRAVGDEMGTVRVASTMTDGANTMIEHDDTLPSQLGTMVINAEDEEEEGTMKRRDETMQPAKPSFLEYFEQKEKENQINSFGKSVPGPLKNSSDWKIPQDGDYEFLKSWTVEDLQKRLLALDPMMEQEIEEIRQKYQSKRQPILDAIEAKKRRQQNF
T9 sequence (Q15722 whole entry): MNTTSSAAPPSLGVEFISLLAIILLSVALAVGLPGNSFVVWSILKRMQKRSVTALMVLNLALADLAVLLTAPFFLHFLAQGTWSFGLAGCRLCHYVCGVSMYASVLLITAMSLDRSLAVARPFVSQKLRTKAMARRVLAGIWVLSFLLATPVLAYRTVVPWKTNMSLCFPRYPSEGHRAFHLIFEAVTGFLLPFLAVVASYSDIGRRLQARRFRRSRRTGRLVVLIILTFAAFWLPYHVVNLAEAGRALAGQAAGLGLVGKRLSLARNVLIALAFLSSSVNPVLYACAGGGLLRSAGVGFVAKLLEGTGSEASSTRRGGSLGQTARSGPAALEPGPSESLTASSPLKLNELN
Sequence of CDK7/CYCLINH/MAT1 (P50613 whole entry): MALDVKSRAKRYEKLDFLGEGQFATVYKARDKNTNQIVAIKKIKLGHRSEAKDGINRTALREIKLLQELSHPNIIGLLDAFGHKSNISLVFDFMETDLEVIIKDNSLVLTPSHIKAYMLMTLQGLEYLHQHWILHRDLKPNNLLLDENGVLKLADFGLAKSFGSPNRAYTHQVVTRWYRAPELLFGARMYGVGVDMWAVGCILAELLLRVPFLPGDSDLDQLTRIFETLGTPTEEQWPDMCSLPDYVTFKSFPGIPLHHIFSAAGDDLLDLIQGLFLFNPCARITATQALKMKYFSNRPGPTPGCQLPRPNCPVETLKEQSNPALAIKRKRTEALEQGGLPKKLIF
Sequence of CDK7/CYCLINH/MAT1 (P51946 whole entry partner): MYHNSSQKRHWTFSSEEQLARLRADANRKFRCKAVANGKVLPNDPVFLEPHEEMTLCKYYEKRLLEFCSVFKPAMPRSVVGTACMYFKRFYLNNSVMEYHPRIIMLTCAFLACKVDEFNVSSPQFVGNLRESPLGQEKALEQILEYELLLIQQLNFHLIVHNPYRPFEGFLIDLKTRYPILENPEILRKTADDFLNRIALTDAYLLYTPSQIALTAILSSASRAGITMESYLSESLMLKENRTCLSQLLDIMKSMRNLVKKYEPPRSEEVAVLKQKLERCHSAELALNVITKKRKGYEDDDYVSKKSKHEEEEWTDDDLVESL
Sequence of CDK7/CYCLINH/MAT1 (P51948 whole entry partner): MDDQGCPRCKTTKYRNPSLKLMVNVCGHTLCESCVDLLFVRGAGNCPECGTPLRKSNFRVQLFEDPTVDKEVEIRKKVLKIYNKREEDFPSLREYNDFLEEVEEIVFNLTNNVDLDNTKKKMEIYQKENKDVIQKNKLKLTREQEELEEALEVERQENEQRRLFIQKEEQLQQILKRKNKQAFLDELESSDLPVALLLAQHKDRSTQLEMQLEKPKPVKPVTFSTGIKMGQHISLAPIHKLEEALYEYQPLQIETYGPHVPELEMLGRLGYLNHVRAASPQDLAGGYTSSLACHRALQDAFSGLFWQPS
Sequence of NEK7 (Q8TDX7 whole entry): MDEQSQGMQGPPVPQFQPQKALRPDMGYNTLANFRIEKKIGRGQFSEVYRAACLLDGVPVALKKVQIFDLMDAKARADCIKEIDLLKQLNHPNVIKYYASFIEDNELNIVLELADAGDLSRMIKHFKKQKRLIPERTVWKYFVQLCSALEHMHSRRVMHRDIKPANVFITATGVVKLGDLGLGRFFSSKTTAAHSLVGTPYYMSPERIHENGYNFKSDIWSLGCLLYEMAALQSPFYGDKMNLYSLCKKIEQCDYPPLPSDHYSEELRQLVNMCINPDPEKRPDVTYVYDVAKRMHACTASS

Cn1ncc2cc(-c3cnc(N)c(Cl)c3N3CCC4(CCNC4=O)CC3)ccc21 [Compound 109, 8-(2-Amino-3-chloro-5-(1-methyl-1H-indazol-5-yl)pyridin-4-yl)-2,8-diazaspiro[4.5]decan-1-one]
% effect (TIE2(Y897S)): 0% | % Inhibition of Control Specific Binding (AR (h)): -2% | % Inhibition of Control Specific Binding (AMPA): 3% | inhibition at 10 µM (CCK2 (CCKB) (h)): 0% | % effect (cMET (D1246H)): -8% | % effect (CKIT(D816H)): 1% | % effect (EGFR(T790M)): 11% | % effect (CDK7/CYCLINH/MAT1): 5% | % effect (PRKX): -9% | % effect (CDK9/CYCLINT1): -8% | % effect (SAPK3): 4% | concentration at 1 h (in vivo; Free Plasma conc.): 523 nM | concentration at 2 h (in vivo; Free Plasma conc.): 240 nM | concentration at 6 h (in vivo; Free Plasma conc.): 29 nM | concentration at 24 h (in vivo; Free Plasma conc.): 3 nM | concentration at 1 h (in vivo; Free tumor conc.): 171 nM | concentration at 2 h (in vivo; Free tumor conc.): 120 nM | concentration at 6 h (in vivo; Free tumor conc.): 55 nM | concentration at 24 h (in vivo; Free tumor conc.): 28 nM | concentration at 1 h (in vivo; Total Plasma conc.): 14900 nM | concentration at 2 h (in vivo; Total Plasma conc.): 6860 nM | concentration at 6 h (in vivo; Total Plasma conc.): 822 nM | concentration at 24 h (in vivo; Total Plasma conc.): 90 nM | concentration at 1 h (in vivo; Total tumor conc.): 4880 nM | concentration at 2 h (in vivo; Total tumor conc.): 3420 nM | concentration at 6 h (in vivo; Total tumor conc.): 1570 nM | concentration at 24 h (in vivo; Total tumor conc.): 796 nM | % effect (SAPK2A): -6% | inhibition at 10 µM (5-HT2C (h)): 6% | % effect (JNK3): -5% | % effect (BTK(R28H)): 2% | % effect (PKCIOTA): -5% | % effect (ERBB4): -28% | % effect (PKCBII): 3% | % effect (PKCBETAI): -4% | % effect (PASK): -20% | % effect (NEK7): 15% | % effect (PKCETA): 6% | inhibition at 10 µM (D2S (h)): -5% | % effect (FMS): -23% | % effect (ABL (Q252H)): -10% | % effect (CAMKIIGAMMA): 8% | % effect (IKKALPHA): -17% | % effect (HASPIN): 26% | inhibition at 10 µM (BLT1 (LTB4) (h)): 16% | % effect (MST1): 4% | % effect (PKD2): -1% | % effect (ZIPK): 6% | % effect (NEK2): 4% | % effect (JNK2ALPHA2): -5% | % effect (CHK2(R145W)): 7% | % effect (PLK1): -3% | % effect (SRC(T341M)): -8% | % effect (PIM-2): -1%
